Data from patent US12514828B2, “Methods of permeabilizing the blood brain barrier” (UNIVERSITY OF SOUTHERN CALIFORNIA, priority 2018, dated 2026).
“Also recorded” adds a separate entry of the source.

Tests used:
[1] = system: U-87 human glioma cells; experiment: Intracranial glioma model in athymic nu/nu mice (survival); assay type: in vivo; conditions: applicant's prior experience; untreated mice about four weeks
Description: Male athymic nu/nu mice (6-8 weeks old) will be employed for this research. Rodent subcutaneous/intracranial glioma model can be established as follows. Six to eight week old athymic nu/nu mice will be anesthetized with intraperitoneal injections of ketamine (80 mg/kg) and xylazine (10 mg/kg). For the intracranial glioma model, the mice are placed into a stereotactic head frame (Harvard Apparatus), and local anesthetic (0.2 cc of 0.25% xylocaine) is injected into the right frontal scalp. A knife blade is used to make a small incision, and a drill bit is used to make a small opening in the right frontal skull at the level of the coronal suture. Glioma cells (1×10^5 cells/10 μl), for example, U-87 human glioma cells, will be loaded into a calibrated Hamilton syringe. The needle tip will be placed precisely into the right frontal lobe of the […], and cells will be slowly injected using a control push from the Hamilton syringe. After the injection is finished, the syringe and needle will be removed, and the wound closed. […]
Brains will be harvested, and tumor size determined. […]

[2] = system: GL261 mouse glioma; experiment: NEO100-mediated human CAR T cell delivery to brain and tumor (CD3 IHC); assay type: in vivo
Description: 2-million CD19 and Lym-1 human CAR T cells that were suspended in 0.9% saline working solution to be used for the IV injection with and without intracardiac NEO100.
Preparation of the working solution for intracardiac injection of NEO100: 3% NEO100 suspended in 0.9% saline.
40 μl 3% NEO100 in saline was injected slowly to complete intracardiac application. Direct cell injection into the heart could cause local microinfarctions if the cells are clumpy during injection, hemopericardium and death as a consequence. This is why ultrasound guided injections with a small 30 G needle is important to minimize these potential adverse effects, (1) enabling the visualization of the needle tract to ensure that the needle enters the left ventricle only, and (2) subsequent monitoring of the heart through not only ECG but visualization of heart wall function after the injection. The fine gauge of the needle ensures that the cells are not clumpy when the cells are injected through intracardiac puncture.
Immediate after the completion of NEO100 injection, 2 million human CAR T cells in 40 μl PBS were injected through tail vein catheter that pre-primed with saline solution. To avoid the possible adverse effects mentioned above by direct cell injection through intracardiac application, we set up 2-step procedures for the study.
Step 1: 40 μl 3% NEO100 in saline was injected slowly to complete intracardiac application. This procedure allows NEO100 to exert the function of BBB disruption.
Step 2: 2-million CAR T cells were injected by IV through tail vein catheter.
Brain Perfusion—In order to rule out the residue left over inside the blood vessel after euthanizing, the testing animals were perfused by 10 ml 0.9% normal saline solution through left ventricle to flush out the blood. […] Confocal Imaging—[…] fresh frozen sections were made by cryostasis machine and pasted on microslide. Coverslip was mounted on the brain section by DAPI mounting medium before Confocal examination. […]

[3] = system: GL261 mouse glioma; experiment: Anti-mouse PD-1 antibody therapeutic efficacy (survival) in intracranial syngeneic mouse glioma; assay type: in vivo, C57 BL/6 mice
Description: 100,000 GL261 mouse glioma cells were injected intracranially to immune competent mice, C57 BL/6. 7 days post the injection, the mice were randomly divided into 4 experimental groups, and initiated the treatment at the same day. • Group 1. Control: IV and Intracardiac injection of 40 μl Saline Solution (5). • Group 2. Antibody treated mice: IV 40 μl Anti-mouse PD1 antibody at the dose of 2.5 • mg/kg (5). • Group 3. NEO100 treated mice: Intracardiac injection of 40 μl 5% NEO100 (5). • Group 4. Combination of NEO100 and antibody treated mice: Intracardiac 40 μl 5% NEO100, followed by IV 40 μl Anti-PD1 antibody at the dose of 2.5 mg/kg (6).
Animal survival data were plotted using the Kaplan-Meier method. One-way ANOVA was used for the overall test for differences. Grouped comparisons were performed using the Tukey method of adjusting for multiple comparisons. Logrank (Mantel-Cox) test was applied for the comparison of survival curves. A statistical evaluation result of p<0.05 was considered significant.

[4] = system: Madin-Darby Canine Kidney (MDCK) cells; experiment: In vitro BBB tight junction model (Transwell, TEER, fluorescence antibody); assay type: cell-based
Description: The labelled components are Transwell chemotaxis chamber; upper chamber; porous membrane and lower chamber. Transwell culture chambers (pore size: 0.8 μm). Madin-Darby Canine Kidney (MDCK) cells are epithelial cells. TEER: transepithelial/transendothelial electrical resistance. Fluorescence Ab: Alexa Fluo® 488; donkey anti-rat IgG (H+L). Fluorescence was measured in the lower chamber in about 120 minutes.

[5] = system: Raji's-Luc/GFP human B-cell lymphoma cells; experiment: Lym-1 CAR T cell delivery in intracranial Raji lymphoma xenografts (survival); assay type: in vivo, NSG mice; conditions: IV Lym-1 CAR T (5×10e6) + IC NEO100 (0.3% v/v=492 μM); control mice died within 15-20 days; P=0.0029
Description: 50,000 (5×10^4) human B-cell lymphoma cells, Raji's-Luc/GFP, were injected intracranially into NSG mice.
5 days post the tumor cells injection, the optical imaging was performed to confirm the tumor uptake (100% tumor uptake).
There were 3 experimental groups: (1) Control; (2) IV CAR T (5×10e6); (3) IV CAR T (5×10e6)+IC NEO100 (0.3% v/v=492 μM)
Body weight was monitored for the physical condition of the mice during the treatment. Tumor growth was monitored by optical imaging.

[6] = system: blood-brain-barrier
Description: Brain Perfusion—Before euthanizing, the testing animals was perfused by 0.9% normal saline solution through left ventricle. The brain was removed and buried in OCT, and stored in −80° C. for further analysis.
Ultrasound Guided Intracardiac Puncture—Briefly, the animals were anesthetized using 2% isoflurane gas and fixed on the platform for intracardiac puncture. To penetrate the syringe needle into intercoastal space promptly through skin and muscle layers into the left ventricle under the guidance of ultrasound imaging. An indication of successful insertion of the needle into the left ventricle is the reflux of fresh arterial blood (pink color in contrast to dark red venous blood) into the syringe.
The extravasation of stained albumin from circulation could be visualized.
Different concentration of NE0100 (40 μ1 in 0.9% saline) was tested through intracardiac puncture, followed by immediate intravenous application of 2% Evans Blue (40 μ1 in volume). The brain was removed after perfusion.
Experimental groups include: • IC 2% EB only • IC 20% ethanol+2% EB • IC 20% ethanol+2% EB+5% NEO100 • IC 20% ethanol+5% NEO100, followed by 2% EB tail vein injection • IV 20% ethanol+2% EB+5% NEO100 • IV 20% ethanol+2% EB
The immune competent C57 BL/6 mice was injected with 5% NEO100 (v/v) through intracardiac puncture (IC), followed by intravenous injection of 2% Evans Blue at different time points, such as 0, 5 min, 15 min, 30 min, 1-hour, 2-hour, 3-hour, and 4 hours, post the IC injection.
Intracardiac Injection (IC): 5% NEO100. • 2. Followed by intravenous injection (IV) of 2% EB at different times. • 3. The testing animals were euthanized one hour after the IV injection.

[7] = system: recurrent malignant gliomas; conditions: intranasal delivery, cited from earlier work

Row | SMILES | survival after implantation [1] | severe adverse effect or animal death ([2]; 3% NEO100 intracardiac injection) | penetration of human CAR T cells (anti-CD19 and Lym-1) into the tumor formed inside the brain ([2]; 40 μl 3% NEO100 intracardiac, then 2 million CAR T cells IV, compared to IV only, 6 h) | CD3 positive cells in the normal parts of brain ([2]; intracardiac NEO100 plus IV CAR T cells vs IV injection only) | animal survival, combination ([3]; 40 μl 5% NEO100 intracardiac followed by anti-PD1 antibody 2.5 mg/kg IV) | animal survival, single agent ([3]; NEO100 alone (40 μl 5% intracardiac) or anti-PD1 alone (2.5 mg/kg IV)) | penetration of fluorescence labelled antibody across in vitro BBB model ([4]; Alexa Fluo 488 donkey anti-rat IgG, fluorescence in lower chamber at about 120 minutes) | TEER (transepithelial/transendothelial electrical resistance) ([4]; NEO100 2 mM) | animal survival (Kaplan Meier) [5] | disturbance of the BBB (Evans Blue uptake into brain) ([6]; NEO100 1:1000 dilution (6.5 mM 40 μl) intracardiac, then 2% Evans Blue IV) | dopamine delivery to the brain ([6]; intracardiac NEO100) | opening of the BBB for antibodies ([6]; intracardiac injection (equivalent to intra-arterial injection for mice)) | tight junction in the brain ([6]; intracardiac injection of 5% NEO100 compared to normal brain) | safety of intraarterial administration ([6]; mouse, in vivo) | patients achieving 6 month progression-free period ([7]; 140 treated patients) [%] | disease response [7] | side effects from the treatment [7] | disease remission ([7]; several patients) [years]
1 | Cn1nnc2c(C(N)=O)ncn2c1=O [TMZ, temozolomide] | up to 8 weeks | – | – | – | – | – | – | – | – | – | – | – | – | – | – | – | – | –
2 | C=C(C)[C@@H]1CC=C(CO)CC1 [NEO100, perillyl alcohol] | – | does not cause any severe adverse effect or animal death | greatly increase the penetration into the tumor | More CD3 positive cells were found in the normal parts of brain | still alive | all the controls were dead | transiently allow labeled antibodies to transiently cross it; also recorded: enhanced penetration of fluorescence labelled antibody | decreased TEER | survived | still effective to disturb the BBB | mediated dopamine delivery through the breached blood-brain-barrier | could open the BBB for antibodies | breached dramatically | safe to administer intraarterially | 50 | regression or stabilization of the disease | almost non-existent | ≤ 3
